Measured values: patent US20230303497A1, “BENZYLAMINE OR BENZYL ALCOHOL DERIVATIVE AND USES THEREOF” (CHENGDU HYPERWAY PHARMACEUTICALS CO., LTD, priority 2020, published 2023)

target: human NaV1.8 ion channel (Homo sapiens (Human), UniProt Q9Y5Y9); assay: Compound inhibition activity on human NaV1.8 ion channel in HEK293 cells (whole-cell patch clamp); type: cell-based; conditions: 100 nm concentration; HEK293 cells, resting protocol
Method: Test Case 1: Compound Inhibition Activity on Human NaV1.8 Ion Channel in HEK293 Cells
The final concentrations of the test compounds are prepared on the same day and then dissolved in extracellular solution. […] The intracellular solution (mM) contains: Aspartic acid, 140; MgCl2, 2; EGTA 11; HEPES, 10; pH 7.2 (CsOH titration). All test solutions contain 1 μM TTX.
The test solution are stored at a concentration of 3 mM in dimethyl sulfoxide (DMSO). The solutions will be dissolved in extracellular solution on the day of testing and prepared to the required concentration.
All experiments were performed at room temperature. Each cell itself is taken as the corresponding control.
At least one cell is tested per concentration.
HEK293 cell steady expressing NaV1.8 ion channel.
The intracellular fluid (mM) contains: Aspartic acid, 140; MgCl2, 2; EGTA 11; HEPES, 10; pH 7.2 (CsOH titration). […] Electrodes are drawn with PC-10 (Narishige, Japan). Recording is performed with whole-cell diaphragm clamp.
The cells are clamped at −80 mV and then depolarized to 10 mV with a sustained 10 ms square wave to give a Nav1.8 current. This procedure is repeated every 5 seconds.

Sequence of human NaV1.8 ion channel (Q9Y5Y9 whole entry): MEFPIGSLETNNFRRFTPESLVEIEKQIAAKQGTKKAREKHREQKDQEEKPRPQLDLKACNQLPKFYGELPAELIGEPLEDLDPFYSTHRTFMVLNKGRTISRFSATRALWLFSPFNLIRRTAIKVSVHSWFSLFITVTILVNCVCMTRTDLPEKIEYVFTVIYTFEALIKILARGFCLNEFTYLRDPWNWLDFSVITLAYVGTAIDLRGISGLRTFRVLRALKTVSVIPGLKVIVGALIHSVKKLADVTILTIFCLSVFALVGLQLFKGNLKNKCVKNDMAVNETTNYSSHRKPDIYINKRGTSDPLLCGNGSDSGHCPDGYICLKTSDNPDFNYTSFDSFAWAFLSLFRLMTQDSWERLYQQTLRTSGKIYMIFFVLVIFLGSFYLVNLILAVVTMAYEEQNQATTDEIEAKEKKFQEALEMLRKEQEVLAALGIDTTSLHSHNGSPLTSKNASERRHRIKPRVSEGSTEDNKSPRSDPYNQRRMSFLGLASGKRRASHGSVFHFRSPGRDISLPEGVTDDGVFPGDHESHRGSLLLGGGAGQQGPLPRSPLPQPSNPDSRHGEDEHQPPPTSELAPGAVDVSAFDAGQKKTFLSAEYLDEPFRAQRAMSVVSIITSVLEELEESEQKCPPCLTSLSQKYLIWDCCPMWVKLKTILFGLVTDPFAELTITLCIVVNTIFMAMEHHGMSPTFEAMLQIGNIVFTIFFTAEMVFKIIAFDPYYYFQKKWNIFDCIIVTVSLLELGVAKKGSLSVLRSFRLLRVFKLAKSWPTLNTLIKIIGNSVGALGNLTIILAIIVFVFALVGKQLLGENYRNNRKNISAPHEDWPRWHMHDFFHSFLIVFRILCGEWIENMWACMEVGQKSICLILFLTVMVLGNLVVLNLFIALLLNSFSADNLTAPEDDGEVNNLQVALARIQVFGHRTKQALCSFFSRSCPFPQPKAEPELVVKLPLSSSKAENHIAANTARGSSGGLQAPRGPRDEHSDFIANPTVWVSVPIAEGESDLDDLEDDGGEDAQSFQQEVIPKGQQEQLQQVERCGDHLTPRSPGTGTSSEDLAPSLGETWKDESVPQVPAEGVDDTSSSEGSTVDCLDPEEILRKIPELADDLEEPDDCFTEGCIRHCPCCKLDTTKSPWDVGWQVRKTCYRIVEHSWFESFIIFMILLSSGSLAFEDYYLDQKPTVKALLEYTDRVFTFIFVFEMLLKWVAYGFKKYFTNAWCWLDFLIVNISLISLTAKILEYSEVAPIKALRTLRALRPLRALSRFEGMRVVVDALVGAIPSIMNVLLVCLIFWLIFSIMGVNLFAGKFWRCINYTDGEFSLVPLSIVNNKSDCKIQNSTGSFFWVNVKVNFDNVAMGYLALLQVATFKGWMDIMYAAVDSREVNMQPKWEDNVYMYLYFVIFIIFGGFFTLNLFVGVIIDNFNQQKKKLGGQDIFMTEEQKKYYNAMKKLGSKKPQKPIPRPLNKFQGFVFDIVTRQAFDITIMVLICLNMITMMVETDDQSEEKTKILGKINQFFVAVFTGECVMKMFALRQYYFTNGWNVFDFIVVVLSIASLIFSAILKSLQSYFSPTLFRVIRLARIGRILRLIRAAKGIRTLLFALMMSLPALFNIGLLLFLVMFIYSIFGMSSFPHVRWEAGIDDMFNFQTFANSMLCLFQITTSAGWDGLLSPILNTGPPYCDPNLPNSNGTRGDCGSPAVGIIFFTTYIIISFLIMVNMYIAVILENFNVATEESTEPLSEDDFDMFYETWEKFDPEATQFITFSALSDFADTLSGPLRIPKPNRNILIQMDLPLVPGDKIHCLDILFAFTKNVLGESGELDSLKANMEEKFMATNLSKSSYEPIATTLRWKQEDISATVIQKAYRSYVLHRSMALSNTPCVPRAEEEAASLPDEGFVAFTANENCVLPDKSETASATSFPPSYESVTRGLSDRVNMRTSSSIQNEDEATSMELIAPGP

Inhibition ratio of compounds against Nav1.8 (Activity of inhibition) | Compound | Inhibition ratio of Nav1.8 (Activity of inhibition)
– | Cc1cc(F)ccc1Oc1cc(C2CC2)c(C(F)(F)F)cc1C(=O)Nc1ccc(F)c(C(N)CCO)c1 (stereo not shown) [Example 3, N-(3-(1-Amino-3-hydroxypropyl)-4-fluorophenyl)-4-cyclopropyl-2-(4-fluoro-2-methylphenoxy)-5-(trifluoromethyl) benzamide] | A (A >= 80)
– | Cc1cc(F)ccc1Oc1ccc(C(F)(F)F)cc1C(=O)Nc1ccc(F)c(CC(N)C(N)=O)c1 (stereo not shown) [Example 17, N-(3-(2,3-Diamino-3-oxopropyl)-4-fluorophenyl)-2-(4-fluoro-2-methylphenoxy)-5-(trifluoromethyl) benzamide] | D (D < 20)
B (80 > B >= 50) | Cc1cc(F)ccc1Oc1cc(C2CC2)c(C(F)(F)F)cc1C(=O)Nc1ccnc(OCC(O)CO)c1 (stereo not shown) [Example 63, 4-Cyclopropyl-N-(2-(2,3-dihydroxypropoxy)pyridin-4-yl)-2-(4-fluoro-2-methylphenoxy)-5-(trifluoromethyl) benzamide] | –

same assay, conditions: 100 nm concentration; HEK293 cells, resting protocol; read-out: Inhibition ratio of Nav1.8 (Activity of inhibition)

Compound | inhibition at 0.1 µM [%]
COCCNC(=O)C(N)c1cc(NC(=O)c2cc(C(F)(F)F)c(C3CC3)cc2Oc2ccc(F)cc2C)ccc1F (stereo not shown) [Example 44] | 50 to 80
Cc1cc(F)ccc1Oc1cc(C2CC2)c(C(F)(F)F)cc1C(=O)Nc1ccc(F)c(C(F)(F)CCO)c1 [Example 32, 4-Cyclopropyl-N-(3-(1,1-difluoro-3-hydroxypropyl)-4-fluorophenyl)-2-(4-fluoro-2-methylphenoxy)-5-(trifluoromethyl) benzamide] | 20 to 50
Cc1cc(F)ccc1Oc1cc(C2CC2)c(C(F)(F)F)cc1C(=O)Nc1ccc(F)c(C(N)CC(N)=O)c1 (stereo not shown) [Example 37] | > 80
Cc1cc(F)ccc1Oc1cc(C2CC2)c(C(F)(F)F)cc1C(=O)Nc1ccc(F)c(C(C)CCN)c1 (stereo not shown) [Example 29, N-(3-(4-Aminobutan-2-yl)-4-fluorophenyl)-4-cyclopropyl-2-(4-fluoro-2-methylphenoxy)-5-(trifluoromethyl) benzamide] | 50 to 80
Cc1cc(F)ccc1Oc1cc(C2CC2)c(C(F)(F)F)cc1C(=O)Nc1ccc(F)c(C(F)CCO)c1 (stereo not shown) [Example 31, 4-Cyclopropyl-2-(4-fluoro-2-methylphenoxy)-N-(4-fluoro-3-(1-fluoro-3-hydroxypropyl)phenyl)-5-(trifluoromethyl) benzamide] | 50 to 80
Cc1cc(F)ccc1Oc1ccc(C(F)(F)F)cc1C(=O)Nc1ccc(F)c(C(O)C2CCNC2=O)c1 (stereo not shown) [Example 25, 2-(4-fluoro-2-methylphenoxy)-N-(4-fluoro-3-(hydroxyl (2-oxopyrrolidin-3-yl)methyl)phenyl)-5-(trifluoromethyl) benzamide] | 20 to 50
Cc1cc(F)ccc1Oc1cc(C2CC2)c(C(F)(F)F)cc1C(=O)Nc1ccc(F)c(C(N)C(=O)NCCO)c1 (stereo not shown) [Example 43] | 50 to 80
CC(=O)NC(CCO)c1cc(NC(=O)c2cc(C(F)(F)F)c(C3CC3)cc2Oc2ccc(F)cc2C)ccc1F (stereo not shown) [Example 6, N-(3-(1-Acetylamino-3-hydroxypropyl)-4-fluorophenyl)-4-cyclopropyl-2-(4-fluoro-2-methylphenoxy)-5-(trifluoromethyl) benzamide] | 50 to 80

The next lines start with the values.

inhibition at 0.1 µM [%] | Compound
> 80 | Cc1cc(F)ccc1Oc1cc(C2CC2)c(C(F)(F)F)cc1C(=O)Nc1ccc(F)c(C(N)C(N)=O)c1 (stereo not shown) [Example 9, 4-Cyclopropyl-N-(3-(1,2-diamino-2-oxoethyl)-4-fluorophenyl)-2-(4-fluoro-2-methylphenoxy)-5-(trifluoromethyl) benzamide]
> 80 | CNC(C(N)=O)c1cc(NC(=O)c2cc(C(F)(F)F)c(C3CC3)cc2Oc2ccc(F)cc2C)ccc1F (stereo not shown) [Example 10, N-(3-(2-amino-1-(methylamino)-2-oxoethyl)-4-fluorophenyl)-4-cyclopropyl-2-(4-fluoro-2-methylphenoxy)-5-(trifluoromethyl) benzamide]
> 80 | CNC(CCO)c1cc(NC(=O)c2cc(C(F)(F)F)c(C3CC3)cc2Oc2ccc(F)cc2C)ccc1F (stereo not shown) [Example 7, 4-Cyclopropyl-2-(4-fluoro-2-methylphenoxy)-N-(4-fluoro-3-(3-hydroxy-1-(methylamino)propyl)phenyl)-5-(trifluoromethyl) benzamide]
20 to 50 | Cc1cc(F)ccc1Oc1cc(C2CC2)c(C(F)(F)F)cc1C(=O)Nc1ccc(F)c(C(C)CCO)c1 (stereo not shown) [Example 28, 4-cyclopropyl-2-(4-fluoro-2-methylphenoxy)-N-(4-fluoro-3-(4-hydroxybutan-2-yl)phenyl)-5-(trifluoromethyl) benzamide]
> 80 | Cc1cc(F)ccc1Oc1cc(C2CC2)c(C(F)(F)F)cc1C(=O)Nc1ccc(F)c(C(CCO)N(C)C)c1 (stereo not shown) [Example 8, 4-Cyclopropyl-N-(3-(1-(dimethylamino)-3-hydroxypropyl)-4-fluorophenyl)-2-(4-fluoro-2-methylphenoxy)-5-(trifluoromethyl) benzamide]
< 20 | Cc1cc(F)ccc1Oc1cc(C2CC2)c(C(F)(F)F)cc1C(=O)Nc1ccc(F)c(C(F)(F)C(=O)NCCO)c1 [Example 33, 4-Cyclopropyl-N-(3-(1,1-difluoro-2-((2-hydroxyethyl)amino)-2-oxoethyl)-4-fluorophenyl)-2-(4-fluoro-2-methylphenoxy)-5-(trifluoromethyl) benzamide]

same assay, conditions: 100 nm concentration; HEK293 cells, resting protocol; read-out: Inhibition ratio of compounds against Nav1.8 (Activity of inhibition)

Compound | inhibition at 0.1 µM [%]
Cc1cc(F)ccc1Oc1cc(C2CC2)c(C(F)(F)F)cc1C(=O)Nc1ccc(F)c(OCC(N)=O)c1 [Example 76] | > 80
Cc1cc(F)ccc1Oc1cc(C2CC2)c(C(F)(F)F)cc1C(=O)Nc1ccc(F)c(C(CCO)NS(C)(=O)=O)c1 (stereo not shown) [Example 73] | 20 to 50
Cc1cc(F)ccc1Oc1cc(C(F)(F)F)c(Cl)cc1C(=O)Nc1ccc(F)c(OC[C@@H](O)CNC(=O)CO)c1 [Example 118] | 50 to 80
Cc1cc(F)ccc1Oc1cc(C2CC2)c(C(F)(F)F)cc1C(=O)Nc1ccc(F)c(OCc2ncc[nH]2)c1 [Example 74] | 50 to 80
Cc1cc(F)ccc1Oc1cc(C(F)(F)F)c(Cl)cc1C(=O)Nc1ccnc(OCC(O)CO)c1 (stereo not shown) [Example 103] | > 80
Cc1cc(F)ccc1Oc1cc(C(F)(F)F)ccc1C(=O)Nc1ccnc(OC[C@H](O)CO)c1 [Example 108] | 50 to 80
Cc1cc(F)ccc1Oc1cc(C2CC2)c(C(F)(F)F)cc1C(=O)Nc1ccc(F)c(OCC(O)CNC(=O)CO)c1 (stereo not shown) [Example 65, 4-Cyclopropyl-2-(4-fluoro-2-methylphenoxy)-N-(4-fluoro-3-(2-hydroxy-3-(2-hydroxyacetylamino)propoxy)phenyl)-5-(trifluoromethyl) benzamide] | > 80
Cc1cc(F)ccc1Oc1cc(C2CC2)c(C(F)(F)F)cc1C(=O)Nc1ccc(F)c(OCC(O)CNc2ccccc2)c1 (stereo not shown) [Example 92] | 20 to 50
Cc1cc(F)ccc1Oc1cc(C2CC2)c(C(F)(F)F)cc1C(=O)Nc1ccc(F)c(C(C)CC(N)C(F)(F)F)c1 (stereo not shown) [Example 53, N-(3-(4-Amino-5,5,5-trifluoropentan-2-yl)-4-fluorophenyl)-4-cyclopropyl-2-(4-fluoro-2-methylphenoxy)-5-(trifluoromethyl) benzamide] | < 20

Results, then the compound that gave them:

inhibition at 0.1 µM [%] | Compound
50 to 80 | Cc1cc(F)ccc1Oc1cc(C2CC2)c(C(F)(F)F)cc1C(=O)Nc1ccc(F)c(C(CCO)n2ccnc2)c1 (stereo not shown) [Example 49, 4-Cyclopropyl-2-(4-fluoro-2-methylphenoxy)-N-(4-fluoro-3-(3-hydroxy-1-(1H-imidazol-1-yl)propyl)phenyl)-5-(trifluoromethyl) benzamide]
50 to 80 | Cc1cc(F)ccc1Oc1cc(C2CC2)c(C(F)(F)F)cc1C(=O)Nc1ccc(F)c(C(C)CC(O)CNC(C)(C)C)c1 (stereo not shown) [Example 54, N-(3-(5-(tert-butylamino)-4-hydroxypentan-2-yl)-4-fluorophenyl)-4-cyclopropyl-2-(4-fluoro-2-methylphenoxy)-5-(trifluoromethyl) benzamide]
50 to 80 | Cc1cc(F)ccc1Oc1cc(C2CC2)c(C(F)(F)F)cc1C(=O)Nc1ccc(F)c(OCC(O)CNc2cnn(C)c2)c1 (stereo not shown) [Example 97]
50 to 80 | Cc1cc(F)ccc1Oc1cc(C2CC2)c(C(F)(F)F)cc1C(=O)Nc1ccc(F)c(OCC(O)CNc2ccn[nH]2)c1 (stereo not shown) [Example 99]
50 to 80 | Cc1cc(F)ccc1Oc1cc(C2CC2)c(C(F)(F)F)cc1C(=O)Nc1ccc(F)c(OCC(=O)NC2(C(F)(F)F)CC2)c1 [Example 89]
20 to 50 | Cc1cc(F)ccc1Oc1cc(C2CC2)c(C(F)(F)F)cc1C(=O)Nc1ccc(F)c(OCC2CCCN2)c1 (stereo not shown) [Example 68]
20 to 50 | Cc1cc(F)ccc1Oc1cc(C2CC2)c(C(F)(F)F)cc1C(=O)Nc1ccnc(C(F)(F)F)c1 [Example 69]
20 to 50 | Cc1cc(F)ccc1Oc1cc(C2CC2)c(C(F)(F)F)cc1C(=O)Nc1ccc(F)c(OC2CCC(CO)OC2)c1 (stereo not shown) [Example 84]
> 80 | Cc1cc(F)ccc1Oc1cc(C2CC2)c(C(F)(F)F)cc1C(=O)Nc1cccc(OCC(O)CNC(C)C)c1 (stereo not shown) [Example 82]
50 to 80 | CC(=O)NCC(O)COc1cc(NC(=O)c2cc(C(F)(F)F)c(C3CC3)cc2Oc2ccc(F)cc2C)ccc1F (stereo not shown) [Example 81]
20 to 50 | Cc1cc(F)ccc1Oc1cc(C2CC2)c(C(F)(F)F)cc1C(=O)Nc1ccc(F)c(OC2CCC(CN)OC2)c1 (stereo not shown) [Example 85]
